The structures appear in SMILES notation. ≈ marks a conversion by molar mass, not a printed value.

The results in this text go back to patent US20050032882A1, “Botanical extract compositions and methods of use” (priority 2002, published 2005).

One assay concerns the target T1, COX-2 (Ovis aries, UniProt P79208).
T1 construct: purchased Cayman Chemical 760101
T1 sequence (P79208 17-603): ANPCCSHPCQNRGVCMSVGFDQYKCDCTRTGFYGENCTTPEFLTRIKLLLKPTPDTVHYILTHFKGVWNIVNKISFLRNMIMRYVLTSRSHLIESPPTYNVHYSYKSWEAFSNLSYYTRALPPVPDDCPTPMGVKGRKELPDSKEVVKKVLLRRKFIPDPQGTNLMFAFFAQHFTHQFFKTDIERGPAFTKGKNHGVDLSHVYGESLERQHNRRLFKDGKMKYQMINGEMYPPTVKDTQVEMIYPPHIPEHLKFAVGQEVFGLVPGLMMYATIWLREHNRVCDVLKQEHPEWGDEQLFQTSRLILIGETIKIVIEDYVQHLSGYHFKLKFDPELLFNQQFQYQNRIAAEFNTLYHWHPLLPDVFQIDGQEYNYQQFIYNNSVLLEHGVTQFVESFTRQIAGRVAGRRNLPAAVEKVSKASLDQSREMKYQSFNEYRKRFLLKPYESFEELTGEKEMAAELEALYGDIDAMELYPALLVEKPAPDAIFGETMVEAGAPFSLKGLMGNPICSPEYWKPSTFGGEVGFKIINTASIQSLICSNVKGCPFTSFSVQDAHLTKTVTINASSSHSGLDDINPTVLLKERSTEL
As to the kind of experiment: ovine COX-2 Inhibitor Screening Assay (Cayman, prostaglandin immunoassay). As to conditions: ovine COX-2, arachidonic acid substrate; read-out: IC50 COX-2 inhibition. In kind it is biochemical.

For assay [1], the system named is DU-145 (androgen-independent) prostate cancer cells. As to the kind of experiment: MTT cell viability assay, DU-145 prostate cancer cells. It counts as cell-based. As to conditions: concentration giving 50% inhibition of cancer cell growth, 72 hours, linear interpolation. The text has this:
(§1) Cancer cell lines: LNCaP, DU-145, and MCF-7 cells were purchased from the American Type Culture Collection. […] Cells were maintained in RPMI 1640 culture media supplemented with 10% heat-inactivated FBS, 5 millimolar glutamine, 50 units/milliliter of penicillin G, and 50 […] of streptomycin. The cells were routinely seeded at 1×10^5 cells/milliliter in T-75 flasks, allowed to attach overnight, then treated with the herbal extract. At different times, cells were harvested by trypsinization. […] The assay reagents were purchased from Boehringer Mannheim (Roche Diagnosis Corp, Indianapolis, Ind.). […] The protocol for the cell viability assay was provided by the manufacturer and modified in our laboratory as described below. […] After 24 hours, 20 microliter aliquots of the compounds at various concentrations were added to the attached cells. […] The plates were incubated at 37° C. in a CO2 incubator for 72 hours. At the end of day 3 (after 72 hours), the culture medium was carefully removed without disturbing the cells and replaced by 100 microliters of fresh cell medium.
(In general: Tetrazolium assays rely on reduction of a dye to a coloured formazan, in cell work by metabolically active cells.)

For the next assay, the system named is LNCaP cells. The assay is described as follows: LNCaP cell cycle by DNA content flow cytometry. In kind it is cell-based. To be noted: LNCaP cells exposed 24-48 hours, DAPI DNA content flow cytometry. The protocol:
The cells were washed with phosphate buffered saline (PBS) and fixed in ice-cold 70% ethanol. […] ([…]. Juan, […]. Chen, F. Traganos and Z. Darzynkiewicz, “Apoptosis and Cell Cycle Effects Induced by Extracts of the Chinese Herbal Preparation of PC SPES”, International J. of Oncology (1997), 11: 437-448). The cellular DNA content was measured with an ELITE ESP flow cytometer (Coulter Inc., Fl.) using UV laser illumination. The multicycle program was used to deconvolute the DNA frequency histograms to estimate the frequency of cells in different phases of the cell cycle. […] Similar measurements were conducted for isoliquiritigenin.

Assay [2] deals with MCF-7 breast cancer cells. As to the kind of experiment: MTT cell viability assay, MCF-7 breast cancer cells. In kind it is cell-based. To be noted: concentration giving 50% inhibition of cancer cell growth, 72 hours, linear interpolation. The text has this: Cancer cell lines: LNCaP, DU-145, and MCF-7 cells were purchased from the American Type Culture Collection. […] Cells were maintained in RPMI 1640 culture media supplemented with 10% heat-inactivated FBS, 5 millimolar glutamine, 50 units/milliliter of penicillin G, and 50 […] of streptomycin. The cells were routinely seeded at 1×10^5 cells/milliliter in T-75 flasks, allowed to attach overnight, then treated with the herbal extract. At different times, cells were harvested by trypsinization. […] The assay reagents were purchased from Boehringer Mannheim (Roche Diagnosis Corp, Indianapolis, Ind.). […] The protocol for the cell viability assay was provided by the manufacturer and modified in our laboratory as described below. CSO-0001-P […] After 24 hours, 20 microliter aliquots of the compounds at various concentrations were added to the attached cells. […] The plates were incubated at 37° C. in a CO2 incubator for 72 hours. […] The plate was allowed to stand overnight in the CO2 incubator and read by an ELISA Reader (EL800, Bio-Tek Instruments, Inc.) at a wavelength of 570 nm. The percent cell viability was calculated according to the equation below: [formula] where V is the percent cell viability, Acontrol is the absorption of the control cells, and Atreated is the absorption of the treated cells. […]

In assay [3] the test system is PTX 10 (taxol resistant ovarian cancer cell line). The assay is described as follows: MTT cell viability assay, PTX 10 taxol-resistant ovarian cancer cells. It counts as cell-based. To be noted: protocol as Example 1. The text has this: Cancer cell lines: LNCaP, DU-145, and MCF-7 cells were purchased from the American Type Culture Collection. PTX 10, a taxol-resistant ovarian cancer cell line, was obtained from the Brander Cancer Research Laboratory, New York Medical College. Cells were maintained in RPMI 1640 culture media supplemented with 10% heat-inactivated FBS, 5 millimolar glutamine, 50 units/milliliter of penicillin G, and 50 […] of streptomycin. The cells were routinely seeded at 1×10^5 cells/milliliter in T-75 flasks, allowed to attach overnight, then treated with the herbal extract. At different times, cells were harvested by trypsinization.
The assay reagents were purchased from Boehringer Mannheim (Roche Diagnosis Corp, Indianapolis, Ind.). […] The protocol for the cell viability assay was provided by the manufacturer and modified in our laboratory as described below.
After 24 hours, 20 microliter aliquots of the compounds at various concentrations were added to the attached cells. […] The plates were incubated at 37° C. in a CO2 incubator for 72 hours. At the end of day 3 (after 72 hours), the culture medium was carefully removed without disturbing the cells and replaced by 100 microliters of fresh cell medium.

The subject of assay [4] is LNCaP (androgen-dependent) prostate cancer cells. The assay is described as follows: MTT cell viability assay, LNCaP prostate cancer cells. It counts as cell-based. To be noted: concentration giving 50% inhibition of cancer cell growth, 72 hours, linear interpolation.
Text: as §1

For another assay, the system named is DU-145 cells. The assay is described as follows: DU-145 cell cycle by DNA content flow cytometry. In kind it is cell-based. To be noted: protocol of Example 3. The protocol: The cells were washed with phosphate buffered saline (PBS) and fixed in ice-cold 70% ethanol. […] ([…]. Juan, […]. Chen, F. Traganos and Z. Darzynkiewicz, “Apoptosis and Cell Cycle Effects Induced by Extracts of the Chinese Herbal Preparation of PC SPES”, International J. of Oncology (1997), 11: 437-448). The cellular DNA content was measured with an ELITE ESP flow cytometer (Coulter Inc., Fl.) using UV laser illumination. The multicycle program was used to deconvolute the DNA frequency histograms to estimate the frequency of cells in different phases of the cell cycle.
On the technique in general: Flow cytometry measures light scatter and fluorescence of single cells or particles in a stream.

Protocol for COX-2: This immunoassay uses an antibody to that binds all major prostaglandins to measure quantitatively the amount of PGF2α produced in the COX reaction using arachidonic acid as a substrate. The final volume of the reactions as described below is typically 1.15 ml. In brief, COX-1 or COX-2 (e.g., 20 μl of a solution of from 1 to 100 units/ml COX, where a unit is defined as the amount of enzyme that consumes one nanomole of oxygen per minute at 37° C. in 0.1 M Tris-HCl buffer, pH 8.0 containing 100 μM arachidonate, 5 mM EDTA, 2 mM phenol and 1 μM hematin) is first mixed with a buffer (e.g., 0.1 M Tris, pH 8.0, 5 mM EDTA, 2 mM phenol) and heme (e.g., 10 μl of 10 mM heme) in a microfuge tube. The heme is a cofactor for COX that provides maximal activity in the assay. […] The prostaglandin produced in the reactions is typically quantified using an enzyme immunoassay.
The enzyme immunoassay to detect prostaglandin can conveniently be performed in a 96 well plate using an antibody to detect prostaglandin. As controls, prostaglandin standards and COX 100% activity samples (no inhibitor) can be measured. […] When ready to develop the plate, the reactions are first washed and then incubated with 200 μl of Ellman's reagent for 60 minutes or so. The plate can be read at 405 to 420 nm on a plate reader. […]

For `O=C(/C=C/c1ccc(O)cc1)c1ccc(O)cc1O` [Isoliquiritigenin, 2′,4,4′-trihydroxychalcone], the IC50 – broadly, the concentration needed to halve the response being measured – at COX-2 was determined as 10.5 µM. For the same molecule, the “ED50 from MTT assay, DU145” value in assay [1] is 7.60 µg/mL (≈ 29.7 µM). The “effect on LNCaP cell cycle phases (G1, S, G2M)” value in the assay with LNCaP cells is “induced a G2M phase arrest”. Besides, the “ED50 from MTT assay, MCF7” value in assay [2] was 3.25 µg/mL (≈ 12.7 µM). Also, the “ED50 PTX 10 (taxol resistant ovarian cancer cell)” value in assay [3] is 3.32 µg/mL (≈ 13 µM). For the same molecule, in assay [4], the “ED50 from MTT assay, LNCaP” value was determined as 3.51 µg/mL (≈ 13.7 µM).

Take `COc1c(O)cc(O)c2c(=O)cc(-c3ccccc3)oc12` [Wogonin, 5,7-dihydroxy-8-methoxy-flavone]: the “effect on DU-145 cell cycle phases” value in the assay on DU-145 cells is listed as “prolonged the G2M phase”. The “effect on LNCaP cell cycle phases (G1, S, G2M)” value with LNCaP cells is “induced a G1 phase arrest”.
